These results are taken from publication PMC3502156, “Anti-plasmodial action of de novo-designed, cationic, lysine-branched, amphipathic, helical peptides” (Malaria Journal, 2012).

What is called IC50 is the concentration at which inhibition is half-maximal. As a reminder, the IC70 is the concentration at which the effect reaches the 70% level.

Data set [1] relates to P. falciparum 3D7 (chloroquine-sensitive). Description: microbe, parasite or virus in culture. It is filed as cell-based, Plasmodium falciparum. The method, then:
(§1) Chloroquine-sensitive (3D7) and CQ-resistant (Dd2 and INDO) strains of P. falciparum were maintained in continuous culture according to the method of Trager and Jensen with minor modifications. Cultures were maintained in fresh group O^+ve human erythrocytes suspended at 4% haematocrit in complete medium {16.2 g/L RPMI 1640 containing 25 mM HEPES, 11.11 mM glucose (Gibco), 0.2% sodium bicarbonate (Sigma), 0.5% Albumax I (Gibco), 45 μg/litre hypoxanthine (Sigma) and 50 μg/litre gentamicin (Gibco)} and incubated at 37°C under a gas mixture 5% O2, 5% CO2, and 90% N2. Every day, the spent medium was replaced by fresh complete medium to propagate the culture. […] Parasitaemia was monitored by microscopic examination of Giemsa-stained blood smears. Synchronized ring stage parasite was obtained by 5% sorbitol treatment. Trophozoites and schizont-stage parasites were enriched by using Percoll gradient.
(§2) Stock solutions of peptides and CQ were prepared in water (milli-Q grade) while artemisinin stock solution was in dimethyl sulphoxide (DMSO). All stocks were then diluted with culture medium to achieve the required drug concentrations. The concentration of peptide solution in water was based on A280 [ϵ (M^-1 cm^-1) ΔF (didehydrophenylalanine) 19,000, W (Tryptophan) 5,000)]. Thus ϵ280 were 62,000, 124,000, 124,000 and 248,000 for ΔFm, (ΔFm)2, ΔFd and ΔFq respectively. The concentration of FITC-peptides was based on A495 [ϵ(M^-1 cm^-1) FITC 77,000 for (ΔFm)2 with one FITC and 154,000 for ΔFd with two FITC per molecule]. Drugs and peptides solutions were placed in 96-well flat bottom tissue culture grade plates (Corning).
(§3) For drug screening, SYBR green I based fluorescence assay was used as described previously by Smilkstein et al.[30]. Sorbitol synchronized ring stage parasites (haematocrit: 2%, parasitaemia: 1%, 100 μl) under normal culture conditions were incubated in the absence or presence of increasing concentrations of peptides in water. CQ and artemisinin were used as positive controls. […] After 48 hr of incubation 100 μl of SYBR Green I buffer [0.2 μl of 10,000 X SYBR Green I (Invitrogen) per ml of lysis buffer {Tris (20 mM; pH 7.5), EDTA (5 mM), saponin (0.008%; wt/vol), and Triton X-100 (0.08%; vol/vol)}] was added to each well, mixed twice gently with multi-channel pipette and incubated in dark at 37 °C for 1 h. Fluorescence was measured with a Victor fluorescence multi-well plate reader (Perkin Elmer) with excitation and emission wavelength centred at 485 and 530 nm, respectively. Fluorescence counts for CQ (0.1 μM for 3D7, 1 μM for INDO) were subtracted from counts in each well. The fluorescence counts were plotted against the drug concentration and IC50 (the 50% inhibitory concentration) was determined by analysis of dose–response curves. Results of the above mentioned fluorescence-based assay were validated microscopically by examination of Giemsa-stained smears of peptide-treated parasite cultures. Statistical significance of relative potencies of peptides was determined by student’s T test.

Data set [2] deals with P. falciparum Dd2 (CQ-resistant). Description: microbe, parasite or virus in culture. It counts as cell-based, Plasmodium falciparum. The following applies: for Resistance index IC50 Dd2/ IC50 3D7: IC50 CQ resistant strain/ IC50 CQ sensitive strain. As for the experimental part: as §1, §2, §3
Data set [3] concerns uninfected erythrocytes (URBC). As to the kind of experiment: Haemolysis assay, uninfected red cells. It is filed as cell-based, human. The following applies: 3 h. As for the experimental part:
(§4) Selectivity of haemolysis by peptides for infected erythrocytes (PRBC) vs uninfected erythrocytes (URBC) was examined by incubating the test molecules with URBCs and PRBCs respectively in phosphate-buffered saline (PBS). Briefly, fresh RBCs were spin washed (1600 RPM; 5 min) three times in PBS and re-suspended in PBS at 2% haematocrit. A 100 μl suspension was added to 96-well plate containing the peptides at different concentrations. […] After incubation at 37°C for 3 hr, the samples were centrifuged and supernatant was used to determine the haemolytic activity measured in terms of haemoglobin release as monitored by […]. Triton-treated control samples were diluted 10-fold before reading absorbance. […] Percent haemolysis has been expressed with reference to 100% haemolysis value assigned to positive control (triton X 100 treated RBCs). To study haemolytic susceptibility of parasitized cells, URBCs were replaced with varying percentages (10% and 20%) of mixed stage parasitized cells. […] Haemolysis of parasitized erythrocytes was also monitored microscopically by examining the Giemsa-stained smears. Parasitaemia of ΔFd treated and untreated cultures were microscopically counted for ring, trophozoite and schizont stages respectively. Susceptibility of different stages was compared with corresponding untreated control cultures.

Data set [4] relates to infected erythrocytes (PRBC). Description: Haemolysis assay, parasitized red cells. It counts as cell-based, Plasmodium falciparum. To be noted: 3 h. As for the experimental part:
as §4

Data set [5] concerns HeLa cells. It counts as cell-based. To be noted: 48 h. As for the experimental part:
The cytotoxic effects of ΔFd on mammalian cells was assessed by functional assay as described using HeLa cells cultured in RPMI containing 10% fetal bovine serum, 0.21% sodium bicarbonate (Sigma) and 50 μg/mL gentamycin (complete medium). Briefly, cells (10^4 cells/200 μl/well) were seeded into 96-well flat-bottom tissue culture plates in complete medium. […] DMSO (as positive inhibitor) was added at 10%. Twenty microlitres of a stock solution of MTT (5 mg/mL in 1X phosphate buffered saline) was added to each well, gently mixed and incubated for another 4 hr. After spinning the plate at 1500 rpm for 5 min, supernatant was removed and 100 μl of DMSO (stop agent) was added. Formation of formazon was read on a microtiter plate reader (Versa max tunable multi-well plate reader) at 570 nm. The 50% cytotoxic concentration (TC50) of drug was determined by analysis of dose–response curves.

The test system of data set [6] is P. falciparum 3D7 trophozoites. As to the kind of experiment: Immunofluorescence staining of MSP3 in ΔFd treated trophozoite cultures. It counts as cell-based, Plasmodium falciparum. The following applies: ΔFd 2.5 μM, 37°C, 6 hr; three independent observations. The method, then: Immunohistochemical Fluorescence staining of MSP3 in ∆Fd treated Trophozoite and Schizont cultures.
To probe mechanistic details of ∆Fd-mediated, premature parasite egress, P. falciparum 3D7 culture (2%
parasitaemia, 2% haematocrit) was incubated without (control) or with ∆Fd (2.5 µM) at 37°C for 6 hr in a final
volume of 100 µl made with RPMI (96 µl RPMI + 4 µl peptide solution). Smears were processed as follows: (a)
flooded with 2% BSA/PBS (1 hr, 37°C), (b) PBS washed and (c) flooded (1 hr, 370C) with polyclonal anti-MSP3
antibody produced in mouse (1: 100 dilution in 1% BSA/PBS), (d) PBS washed and (e) flooded with alexa fluor 488
labelled anti-mouse antibody (Sigma) (1: 500 dilution in 1% BSA/PBS, 1 hr, 370C in dark), (e) PBS washed and (f)
flooded with DAPI (4, 6-diamidino-2-phenylindole) (invitrogen) (500 ng/ml, 10 min, 370 C). After a final PBS wash
the smears were observed under Nikon eclipse fluorescence microscope using appropriate filters.

For data set [7], the system named is P. falciparum 3D7 (chloroquine-sensitive). As to the kind of experiment: microbe, parasite or virus in culture. It counts as cell-based, Plasmodium falciparum. The source holds these as a separate data set.
The subject of data set [8] is proteases. To be noted: branched dimer compared with linear dimer (ΔFm)2; cited from earlier work. From the text:
Some important features of these peptides as drugs against malaria include their favourable resistance indices (Table 1) that allow them to rapidly kill both drug-sensitive and drug-resistant strains of malaria parasite with equal potencies, their amphipathic nature that gives them drug-like character, and their ability to permeabilize and penetrate biological membranes, which allows them to attack target cells both from the surface as well as intracellularly. In addition, the presence of the conformationally constrained, non-protein, amino acid didehydrophenylalanine in both ΔFd and (ΔFm)2 pr ...

The test system of data set [9] is P. falciparum INDO (CQ-resistant). Description: microbe, parasite or virus in culture. The following applies: Plasmodium falciparum; ring stage synchronized, 48 hr, SYBR Green I fluorescence, medium with 10% human serum; ± SD of three independent observations. It is filed as cell-based. As for the experimental part:
as §1, with “Synchronized ring stage parasite was obtained by 5% sorbitol treatment. Trophozoites and schizont-stage parasites were enriched by using Percoll gradient.” left out
For drug screening, SYBR green I based fluorescence assay was used as described previously by Smilkstein et al.[30]. […] Fluorescence was measured with a Victor fluorescence multi-well plate reader (Perkin Elmer) with excitation and emission wavelength centred at 485 and 530 nm, respectively. Fluorescence counts for CQ (0.1 μM for 3D7, 1 μM for INDO) were subtracted from counts in each well. […] Results of the above mentioned fluorescence-based assay were validated microscopically by examination of Giemsa-stained smears of peptide-treated parasite cultures. Statistical significance of relative potencies of peptides was determined by student’s T test.

Structures are written as SMILES. “And” between values parts separate entries of the source, which are not always exact repeats. Equal entries are not always repeated. Where two headings read alike, the source gives them in different places. Starred links: 1 amine or outer side, 2 acyl side, 3 side chain; linkers in the order of their positions; H or OH if unused. Positions of bridges follow the written chain, without caps; N, C: chain ends. Non-standard residues stand in square brackets, D forms with d. Residues, ends and D or L forms follow the SMILES beside them. Chains are numbered I, II in the order given. X1 = O=C(/C(=C/c1ccccc1)N[*:1])[*:2] Bounds are passed on as bounds.

Turning to `CC(=O)NCC(=O)N/C(=C\c1ccccc1)C(=O)N[C@@H](CCCNC(=N)N)C(=O)N[C@@H](CCCCN)C(=O)N/C(=C\c1ccccc1)C(=O)N[C@@H](Cc1c[nH]cn1)C(=O)N[C@@H](CCCCN)C(=O)N/C(=C\c1ccccc1)C(=O)N[C@@H](Cc1c[nH]c2ccccc12)C(=O)N[C@@H](C)C(=O)NCCCC[C@H](NC(=O)[C@H](C)NC(=O)[C@H](Cc1c[nH]c2ccccc12)NC(=O)/C(=C/c1ccccc1)NC(=O)[C@H](CCCCN)NC(=O)[C@H](Cc1c[nH]cn1)NC(=O)/C(=C/c1ccccc1)NC(=O)[C@H](CCCCN)NC(=O)[C@H](CCCNC(=N)N)NC(=O)/C(=C/c1ccccc1)NC(=O)CNC(C)=O)C(N)=O` [ΔFd] (I: Ac-G[X1]RK[X1]HK[X1]WAK-NH2 / II: Ac-G[X1]RK[X1]HK[X1]WA; amide I:11-II:C; N-terminus and C-terminus assumed), the IC50 in data set [1] (3D7 (chloroquine-sensitive, 48 h)) came out at 1390 ± 100 nM. The same compound yielded a half-maximal inhibitory concentration (IC50) in [2] (Dd2 (CQ-resistant, 48 h)) of 1600 ± 90 nM. In addition, the “Resistance index IC50 Dd2/ IC50 3D7” value in [2] is 1.1 and ~ 1. Moreover, in data set [3], the “HC50 URBC” value was above 50 µM and the “Hemolytic Selectivity index (HC50 URBC/ IC50 Pf 3D7)” value is recorded as above 35. For the same compound, in data set [4], the “percentage haemolysis, mixed culture 10% parasitaemia” value was 7% and the “percentage haemolysis, mixed culture 20% parasitaemia” value turned out to be 16%. The “TC50 HeLa cells” value in [5] is above 25000 nM. Also, the “anomalously egressed trophozoites with MSP3 staining” value in data set [6] is listed as ~ 40%. The “increment in potency at 96 hr (two cycles) vs 48 hr (one cycle)” value in data set [7] (P. falciparum 3D7, SYBR Green assay) is 1.1 fold. For the same compound, the IC70 in data set [7] (P. falciparum 3D7, dose used on trophozoite and schizont cultures) came out at 2500 nM. In addition, the stability against proteases entry in data set [8] is listed as “more stable against proteases”.
With `C[C@@H]1CC[C@H]2[C@@H](C)C(=O)O[C@@H]3O[C@@]4(C)CC[C@@H]1[C@]32OO4` [Artemisinin, reference compound], the half-inhibitory concentration (IC50) in [1] (Plasmodium falciparum, 3D7, ring stage synchronized, haematocrit 2%, parasitaemia 1%, 48 hr, SYBR Green I fluorescence, ± SD of three independent observations, read-out: IC50 P. falciparum 3D7) came to 15 nM; in data set [2] (Plasmodium falciparum, DD2, ring stage synchronized, haematocrit 2%, parasitaemia 1%, 48 hr, SYBR Green I fluorescence, ± SD of three independent observations, read-out: IC50 P. falciparum Dd2), 16 nM; in data set [9], 15 nM. In addition, the “Resistance index IC50 Dd2/ IC50 3D7” value in data set [2] was found to be 1.
